Measurements as given in patent US20220362239A1, “PHARMACEUTICAL COMPOSITION AND METHOD FOR TREATMENT OF ACUTE RESPIRATORY DISTRESS SYNDROME (ARDS) IN CORONAVIRUS DISEASE (COVID-19)” (PHARMAZZ, INC., priority 2021, published 2022).

Tests used:
[1] = tested on: COVID-19 patients; test: centhaquine (Lyfaquin) in COVID-19 patients; assay type: in vivo, human; conditions: for slope of SpO2/FiO2 versus age of patient: basal slope −1.062
Experimental: The effect of centhaquine (Lyfaquin®) was determined COVID-19 patients. A significant improvement in oxygen saturation (SpO2) of COVID-19 patients by intravenous administration of centhaquine in the dose of 0.01 mg/kg was observed (FIG. 2). An improvement of SpO2 improved by 12.40 units within 2 hours of administration of centhaquine and further treatment with centhaquine led to an improvement of SpO2 by about 20 units.
We also determined the effect of age on the improvement in ratio of SpO2 and FiO2 (SpO2/FiO2) after administration of centhaquine (FIG. 3). […] Centhaquine (Lyfaquin®) improved SpO2/FiO2 in COVID-19 patients.
WHO Ordinal Scale was used to determine whether centhaquine (Lyfaquin®) improved the outcome of patients with COVID-19 (FIG. 5).

[2] = tested on: patients with hypovolemic shock; test: phase III randomized, blinded, multicenter study in hypovolemic shock (NCT04045327); assay type: in vivo, human
Excerpt: ARDS in Shock Patients (N=105): Acute Respiratory Distress Syndrome (ARDS) was compared between day 1 (before resuscitation) and day 3 of resuscitation. In control patients receiving standard treatment the difference between means was 0.04839±0.05696 (P=0.4023). On the other hand, in centhaquine treated group the ARDS difference between means was 0.1065±0.04464 (P=0.0202).
MODS in Shock Patients (N=105): Multiple Organ Dysfunction Score (MODS) was compared between day 3 and day 7 of resuscitation. There was no improvement in MODS in the control group and the difference between means was 0.00±0.2697 (P>0.999), whereas in centhaquine group the difference between means was 0.9091±0.1964 (P=0.0001).

[3] = tested on: patients with hypovolemic shock; test: clinical phase II study in hypovolemic shock (NCT04056065); assay type: in vivo, human
[4] = tested on: healthy human subjects; test: Phase I safety study (NCT02408731); assay type: in vivo
Excerpt: Centhaquine has been evaluated for its safety, sensitivity and toxicity in various species for single and multiple doses and acute as well as chronic exposure (33).
Centhaquine has been evaluated for its safety, sensitivity and toxicity in various species for single and multiple doses and acute as well as chronic exposure (33). […] Safety and efficacy of centhaquine is established (Phase I, phase II and phase III clinical studies)

[5] = tested on: swine model of shock; conditions: in vivo; cited from earlier work
[6] = tested on: models of hypovolemic shock; conditions: in vivo; cited from earlier work
[7] = tested on: swine model of in hospital cardiac arrest; conditions: in vivo; cited from earlier work
[8] = tested on: patients with hypovolemic shock; test: combined / metanalysis of phase II and III trials in hypovolemic shock
Excerpt: In a 105-patient randomized, blinded, multicenter study (CTRI/2019/01/017196; NCT04045327) a total of 34 (22 male and 12 female) patients in control and 68 (41 male and 27 female) patients in centhaquine groups completed the study. […] In total 180 human subjects have been studied (combined phase I, II and III), out of which 155 were patients with hypovolemic shock.

[9] = tested on: SARS-CoV-2; conditions: cited from earlier work
[10] = tested on: SARS-CoV-2 viral load in nasopharyngeal swabs; conditions: 600 mg daily; day 6 post inclusion compared to controls; cited from earlier work
[11] = tested on: COVID-19 patients; conditions: 13 patients; inhalation 10 mg; cited from earlier work

Cc1cccc(N2CCN(CCc3ccc4ccccc4n3)CC2)c1 [centhaquine]
slope of SpO2/FiO2 versus age of patient ([1]; at 2 hours of treatment): −0.5905 | slope of SpO2/FiO2 versus age of patient ([1]; at 4 hours of treatment): −0.2718 | improvement in WHO Ordinal Scale, mean difference ([1]; at 72 hours of resuscitation, N=10, p=0.0169): 0.7444 | patients who did not need oxygen therapy ([1]; at 72 hours of treatment): Four out of 10 | improvement of oxygen saturation (SpO2) ([1]; further treatment with centhaquine): about 20 units | improvement of SpO2/FiO2 ([1]; in 4 hours): 41.42 units | improvement of SpO2/FiO2 ([1]; within 2 hours): 34.48 units | improvement of oxygen saturation (SpO2) ([1]; within 2 hours of intravenous centhaquine 0.01 mg/kg): 12.40 units | ARDS difference between means ([2]; day 1 (before resuscitation) vs day 3 of resuscitation, P=0.0202): 0.1065±0.04464 | blood lactate levels ([2]; day 3 of resuscitation, compared to control, P=0.046): significantly lower | MODS difference between means ([2]; day 3 vs day 7 of resuscitation, P=0.0001): 0.9091±0.1964 | adverse events related to centhaquine ([2]; phase III): NO adverse events | 28-day all-cause mortality ([2]; versus 11.76% with standard treatment, P=0.0742): 2.94% | mortality ([3]; human, in vivo): reduced mortality | use of vasopressors ([3]; human, in vivo): reduction in use of vasopressors | base-deficit ([3]; p<0.0001): highly significant efficacy | blood pressure ([3]; p<0.0001): highly significant efficacy | lactate levels ([3]; p=0.0012): highly significant efficacy | adverse events related to centhaquine ([3]; phase II): NO adverse events | safety and tolerability [4]: safe and well tolerated | Horowitz index (PaO2/FiO2 ratio) [5]: improved | pulmonary edema [5]: significantly reduced | survival [6]: improves survival | efficacy as resuscitative agent [7]: highly effective | mortality ([8]; 155 patients with hypovolemic shock, versus 9.68% with standard treatment): 2.15% | mortality odds ratio ([8]; 155 patients, 95% CI 1.162-24.18, P=0.0190): 4.875 | ARDS scores ([8]; N=155): significantly improved | MODS score ([8]; N=155): significantly improved | mortality ([8]; metanalysis of phase II and III trials, versus 10.71%): 2.20% | mortality odds ratio ([8]; metanalysis of phase II and III, 95% CI 1.27-26.50, p=0.0271): 5.340

CCN(CC)CCCC(C)Nc1ccnc2cc(Cl)ccc12 (stereo not shown) [chloroquine]
inhibition of SARS-CoV-2 in vitro [9]: effectively inhibit

CCN(CCO)CCCC(C)Nc1ccnc2cc(Cl)ccc12 (stereo not shown) [hydroxychloroquine]
viral carriage [10]: significant reduction

B1: plasminogen: plasminogen supplementation given by inhalation, 10 mg dissolved in 2 ml sterile water (protein, UniProt P00747 20-810, looked up)
Plasminogen: EPLDDYVNTQGASLFSVTKKQLGAGSIEECAAKCEEDEEFTCRAFQYHSKEQQCVIMAENRKSSIIIRMRDVVLFEKKVYLSECKTGNGKNYRGTMSKTKNGITCQKWSSTSPHRPRFSPATHPSEGLEENYCRNPDNDPQGPWCYTTDPEKRYDYCDILECEEECMHCSGENYDGKISKTMSGLECQAWDSQSPHAHGYIPSKFPNKNLKKNYCRNPDRELRPWCFTTDPNKRWELCDIPRCTTPPPSSGPTYQCLKGTGENYRGNVAVTVSGHTCQHWSAQTPHTHNRTPENFPCKNLDENYCRNPDGKRAPWCHTTNSQVRWEYCKIPSCDSSPVSTEQLAPTAPPELTPVVQDCYHGDGQSYRGTSSTTTTGKKCQSWSSMTPHRHQKTPENYPNAGLTMNYCRNPDADKGPWCFTTDPSVRWEYCNLKKCSGTEASVVAPPPVVLLPDVETPSEEDCMFGNGKGYRGKRATTVTGTPCQDWAAQEPHRHSIFTPETNPRAGLEKNYCRNPDGDVGGPWCYTTNPRKLYDYCDVPQCAAPSFDCGKPQVEPKKCPGRVVGGCVAHPHSWPWQVSLRTRFGMHFCGGTLISPEWVLTAAHCLEKSPRPSSYKVILGAHQEVNLEPHVQEIEVSRLFLEPTRKDIALLKLSSPAVITDKVIPACLPSPNYVVADRTECFITGWGETQGTFGAGLLKEAQLPVIENKVCNRYEFLNGRVQSTELCAGHLAGGTDSCQGDSGGPLVCFEKDKYILQGVTSWGLGCARPNKPGVYVRVSRFVTWIEGVMRNN
patients with improved oxygen saturation [11]: 6 patients | patients with improvement in density of 'ground glass' opacity [11]: 5 patients
